Patent US12209081B2 (Katholieke Universiteit Leuven, priority 2020, dated 2025)
pIC50: −log10 of the molar value.

Molecular target: mouse TRPM3α2 (mTRPM3) ion channel (Mus musculus (Mouse), UniProt J9SQF3)
Assay: TRPM3 ion channel driven Ca2+ uptake, Fluo-4 AM assay, mTRPM3alpha2 overexpressing flip-in HEK293 cells stimulated with pregnenolone sulfate
Type: cell-based
Conditions: PS 50 μM, cpds 300-399
Procedure: Part B Monitoring the TRPM3 Ion Channel Driven Ca^2+ Uptake.
In order to monitor the inhibition of the mouse TRPM3α2 (mTRPM3) ion channel by the compounds of the invention, a cellular system making use of an mTRPM3alpha2 or hTRPM3 overexpressing cell line (flip-in HEK293) was used. The TRPM3 channel was stimulated/opened with Pregnenolone sulfate (PS) (50 μM) which results in Ca^2+ influx.
For mTRPM3, the intracellular Ca^2+ was measured with a Calcium responsive dye. Fluor-4 AM ester (Invitrogen). Cells were cultured until a confluence of 80-90%, washed with Versene (Invitrogen) and detached from the surface by a short incubation with 0.05% Trypsin (Invitrogen). The trypsination process was stopped by the addition of complete cell culture medium (DMEM, glutamax, 10% FCS,NEAA,Pen-Strep). Cells were collected and resuspended in Krebs buffer without Calcium at RT.
Prior the cell seeding (±2000 cells/well into a black, 384 well plate (Greiner)) the diluted compound was added in the assay plate, together with the PS dissolved in Krebs buffer containing Calcium. […] Directly after cell addition the plates were read on an Envision fluorescence reader (Perkin Elmer) by an Excitation of 485 nm and emission at 535 nm.
Channel inhibition was calculated compared to a non-PS stimulated control versus a condition stimulated with PS (50 μM) with vehicle. The ability of the compounds of the invention to inhibit this activity was determined as: Percentage inhibition=[1-((RFU determined for sample with test compound present—RFU determined for sample with positive control inhibitor) divided by (RFU determined in the presence of vehicle—RFU determined for sample with positive control inhibitor))]*100.

mouse TRPM3α2 (mTRPM3) ion channel, sequence (J9SQF3 other isoform, or with tags, fused parts or gaps): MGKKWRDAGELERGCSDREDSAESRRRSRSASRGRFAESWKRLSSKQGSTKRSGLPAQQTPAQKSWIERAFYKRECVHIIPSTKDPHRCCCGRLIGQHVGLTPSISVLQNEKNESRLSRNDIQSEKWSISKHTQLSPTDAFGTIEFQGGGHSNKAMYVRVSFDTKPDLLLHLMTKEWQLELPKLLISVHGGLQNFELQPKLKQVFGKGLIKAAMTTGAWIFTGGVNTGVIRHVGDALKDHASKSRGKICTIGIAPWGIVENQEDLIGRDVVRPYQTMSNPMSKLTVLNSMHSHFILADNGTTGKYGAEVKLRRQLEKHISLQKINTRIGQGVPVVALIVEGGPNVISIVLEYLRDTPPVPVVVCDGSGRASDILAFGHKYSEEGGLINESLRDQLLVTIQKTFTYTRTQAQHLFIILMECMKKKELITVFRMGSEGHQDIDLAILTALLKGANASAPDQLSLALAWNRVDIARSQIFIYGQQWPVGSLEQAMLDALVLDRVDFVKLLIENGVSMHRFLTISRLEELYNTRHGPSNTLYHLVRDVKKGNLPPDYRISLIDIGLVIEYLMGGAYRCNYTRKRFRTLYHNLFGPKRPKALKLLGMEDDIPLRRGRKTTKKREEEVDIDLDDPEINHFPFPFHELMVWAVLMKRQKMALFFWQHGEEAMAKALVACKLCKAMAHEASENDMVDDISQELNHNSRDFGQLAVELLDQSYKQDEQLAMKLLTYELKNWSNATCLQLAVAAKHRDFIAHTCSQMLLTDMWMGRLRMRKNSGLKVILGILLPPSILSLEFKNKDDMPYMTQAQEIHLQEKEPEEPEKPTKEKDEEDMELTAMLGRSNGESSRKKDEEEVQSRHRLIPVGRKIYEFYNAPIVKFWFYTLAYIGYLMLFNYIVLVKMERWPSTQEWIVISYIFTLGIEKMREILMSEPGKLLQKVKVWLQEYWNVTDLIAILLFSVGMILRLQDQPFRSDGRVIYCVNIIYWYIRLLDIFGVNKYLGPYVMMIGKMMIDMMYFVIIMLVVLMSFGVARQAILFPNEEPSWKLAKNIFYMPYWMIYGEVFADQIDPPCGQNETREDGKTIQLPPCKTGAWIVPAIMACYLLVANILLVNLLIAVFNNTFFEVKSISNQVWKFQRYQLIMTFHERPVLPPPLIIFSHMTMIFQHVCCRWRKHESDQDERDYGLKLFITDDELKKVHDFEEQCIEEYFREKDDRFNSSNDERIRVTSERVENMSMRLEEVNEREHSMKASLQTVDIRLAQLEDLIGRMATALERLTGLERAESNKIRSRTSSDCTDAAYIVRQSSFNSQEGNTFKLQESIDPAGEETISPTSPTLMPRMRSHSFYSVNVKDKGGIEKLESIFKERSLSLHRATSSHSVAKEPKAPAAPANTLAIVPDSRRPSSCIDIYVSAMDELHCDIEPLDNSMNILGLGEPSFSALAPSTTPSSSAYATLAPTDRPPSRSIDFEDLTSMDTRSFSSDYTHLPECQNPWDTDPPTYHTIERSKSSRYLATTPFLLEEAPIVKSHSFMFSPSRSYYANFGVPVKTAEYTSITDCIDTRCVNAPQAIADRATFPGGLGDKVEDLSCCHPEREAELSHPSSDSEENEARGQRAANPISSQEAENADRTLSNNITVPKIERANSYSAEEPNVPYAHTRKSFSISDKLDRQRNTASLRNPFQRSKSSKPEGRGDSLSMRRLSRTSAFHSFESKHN

Row | Compound | IC50
1 | Cc1oc2ccc(OCc3ccnn3CC(F)F)cc2c1C(=O)NC1(CO)CCCNC1=O (single isomer, unassigned) [332-En 1, 5-((1-(2,2-difluoroethyl)-1H-pyrazol-5-yl)methoxy)-N-(3-(hydroxymethyl)-2-oxopiperidin-3-yl)-2-methylbenzofuran-3-carboxamide] | < 1 µM

Same assay, conditions: PS (50 μM) stimulated, cpd 001-199

Row | pIC50 | Compound
2 | 4.70 to 6.00 | Cc1cc2oc(C)c(C(=O)NC3CCNCC3(F)F)c2cc1OCc1cccnc1C(F)(F)F (single isomer, unassigned) [179-En 1, N-(3,3-difluoropiperidin-4-yl)-2,6-dimethyl-5-((2-(trifluoromethyl)pyridin-3-yl)methoxy)benzo-furan-3-carboxamide]
3 | < 4.70 | Cc1cc2oc(C)c(C(=O)NC3CCNCC3(F)F)c2cc1OCc1cccnc1C(F)(F)F (single isomer, unassigned) [179-En 2, N-(3,3-difluoropiperidin-4-yl)-2,6-dimethyl-5-((2-(trifluoromethyl)pyridin-3-yl)methoxy)benzo-furan-3-carboxamide]
4 | < 4.70 | Cc1oc2ccc(OCc3cccnc3C(F)(F)F)c(C#N)c2c1C(=O)NC1CCNCC1(F)F (single isomer, unassigned) [191-En 1, 4-cyano-N-(3,3-difluoropiperidin-4-yl)-2-methyl-5-((2-(trifluoromethyl)pyridin-3-yl)methoxy) -benzofuran-3-carboxamide]
5 | < 4.70 | Cc1oc2cc(C#N)c(OCc3cccnc3C(F)(F)F)cc2c1C(=O)NC1CCNCC1(F)F (single isomer, unassigned) [195-En 1, 6-cyano-N-(3,3-difluoropiperidin-4-yl)-2-methyl-5-((2-(trifluoromethyl)pyridin-3-yl)methoxy) -benzofuran-3-carboxamide]
6 | < 4.70 | Cc1oc2cc(C#N)c(OCc3cccnc3C(F)(F)F)cc2c1C(=O)NC1CCNCC1(F)F (single isomer, unassigned) [195-En 2, 6-cyano-N-(3,3-difluoropiperidin-4-yl)-2-methyl-5-((2-(trifluoromethyl)pyridin-3-yl)methoxy) -benzofuran-3-carboxamide]
7 | < 4.70 | Cc1oc2c(C#N)cc(OCc3cccnc3C(F)(F)F)cc2c1C(=O)NC1CCNCC1(F)F (single isomer, unassigned) [196-En 1, 7-cyano-N-(3,3-difluoropiperidin-4-yl)-2-methyl-5-((2-(trifluoro-methyl)pyridin-3-yl)methoxy)benzofuran-3-carboxamide]
8 | 4.70 to 6.00 | Cc1oc2c(C#N)cc(OCc3cccnc3C(F)(F)F)cc2c1C(=O)NC1CCNCC1(F)F (single isomer, unassigned) [196-En 2, 7-cyano-N-(3,3-difluoropiperidin-4-yl)-2-methyl-5-((2-(trifluoro-methyl)pyridin-3-yl)methoxy)benzofuran-3-carboxamide]
9 | > 6.00 | O=C(NC1CCNCC1(F)F)c1c(C(F)F)oc2ccc(OCc3cccnc3C(F)(F)F)cc12 (single isomer, unassigned) [199-En 1, 2-(difluoromethyl)-N-(3,3-difluoropiperidin-4-yl)-5-((2-(trifluoromethyl)pyridin-3-yl)methoxy) -benzofuran-3-carboxamide]

Continued, compound first:

Row | Compound | pIC50
10 | Cc1ncsc1COc1ccc2oc(C)c(C(=O)NC3CCN(CC(F)(F)F)C3)c2c1 (single isomer, unassigned) [116-En 1, 2-methyl-5-((4-methylthiazol-5-yl)methoxy)-N-(1-(2,2,2-trifluoroethyl)pyrrolidin-3-yl)benzofuran-3-carboxamide] | > 6.00
11 | Cc1oc2ccc(OCc3cccnc3C(F)(F)F)cc2c1C(=O)NC1CCN(CCO)C1=O (single isomer, unassigned) [120-En 1, N-(1-(2-hydroxyethyl)-2-oxopyrrolidin-3-yl)-2-methyl-5-((2 (trifluoromethyl)pyridin-3-yl)methoxy)benzofuran-3-carboxamide] | > 6.00
12 | Cc1ncsc1COc1ccc2oc(C)c(C(=O)NC3(CCO)CCOC3)c2c1 (single isomer, unassigned) [121-En 1, N-(3-(2-hydroxyethyl)tetrahydrofuran-3-yl)-2-methyl-5-((4-methylthiazol-5-yl)methoxy)benzo-furan-3-carboxamide] | > 6.00
13 | Cc1oc2ccc(OCc3cccnc3C(F)(F)F)cc2c1C(=O)NC1CN(C)CC1(F)F (single isomer, unassigned) [124-En 1, N-(4,4-difluoro-1-methylpyrrolidin-3-yl)-2-methyl-5-((2-(trifluoromethyl)pyridin-3-yl)methoxy) -benzofuran-3-carboxamide] | > 6.00
14 | Cc1oc2ccc(OCc3cccnc3C(F)(F)F)cc2c1C(=O)NC1COCC1O (single isomer, unassigned) [147-Dia 1-En 1, N-(4-hydroxytetrahydrofuran-3-yl)-2-methyl-5-((2-(trifluoromethyl)pyridin-3-yl)methoxy) -benzofuran-3-carboxamide] | > 6.00
15 | Cc1oc2ccc(OCc3cccnc3C(F)(F)F)cc2c1C(=O)NC1COCC1O (single isomer, unassigned) [147-Dia 1-En 2, N-(4-hydroxytetrahydrofuran-3-yl)-2-methyl-5-((2-(trifluoromethyl)pyridin-3-yl)methoxy) -benzofuran-3-carboxamide] | > 6.00
16 | Cc1oc2ccc(OCc3cccnc3C(F)(F)F)cc2c1C(=O)NC1CCN(CC(F)(F)F)C1 (single isomer, unassigned) [149-En 1, 2-methyl-N-(1-(2,2,2-trifluoroethyl)pyrrolidin-3-yl)-5-((2-(trifluoromethyl)pyridin-3-yl)methoxy) -benzofuran-3-carboxamide] | > 6.00
17 | Cc1oc2ccc(OCc3cccnc3C(F)(F)F)cc2c1C(=O)NC1CN(CC(F)(F)F)CC1(F)F (single isomer, unassigned) [157-En 1, N-(4,4-difluoro-1-(2,2,2-trifluoroethyl)pyrrolidin-3-yl)-2-methyl-5-((2-(trifluoromethyl)pyridin-3-yl)methoxy)benzofuran-3-carboxamide] | > 6.00
18 | Cc1ncsc1COc1ccc2oc(C)c(C(=O)NC3CCN(CCO)C3=O)c2c1 (single isomer, unassigned) [160-En 1, N-(1-(2-hydroxyethyl)-2-oxopyrrolidin-3-yl)-2-methyl-5-((4-methylthiazol-5-yl)methoxy)benzo-furan-3-carboxamide] | > 6.00
19 | Cc1ncsc1COc1ccc2oc(C)c(C(=O)NC3CN(C(=O)OCC(F)(F)F)CC3(F)F)c2c1 (single isomer, unassigned) [172-En 1, 2,2,2-trifluoroethyl 3,3-difluoro-4-(2-methyl-5-((4-methylthiazol-5-yl)methoxy)benzofuran-3-carboxamido)pyrrolidine-1-carboxylate] | > 6.00
20 | Cc1ncsc1COc1ccc2oc(C(F)F)c(C(=O)NC3CCN(CCO)C3=O)c2c1 (single isomer, unassigned) [198-En 1, 2-(difluoromethyl)-N-(1-(2-hydroxyethyl)-2-oxopyrrolidin-3-yl)-5-((4-methylthiazol-5-yl) -methoxy)benzofuran-3-carboxamide] | 4.70 to 6.00

Same assay, conditions: PS (50 μM) stimulated, cpds. 400-499

Row | Compound | pIC50
21 | Cc1ncsc1COc1ccc2oc(C)c(C(=O)NC(CO)CN(C)C)c2c1 (single isomer, unassigned) [413-En 1, N-(1-(dimethylamino)-3-hydroxypropan-2-yl)-2-methyl-5-((4-methylthiazol-5-yl)methoxy)benzofuran-3-carboxamide] | > 6.00
22 | Cc1ncc(COc2ccc3oc(C)c(C(=O)NC(Cn4cncn4)C(N)=O)c3c2)s1 (single isomer, unassigned) [432-En 1, N-(1-amino-1-oxo-3-(1H-1,2,4-triazol-1-yl)propan-2-yl)-2-methyl-5-((2-methylthiazol-5-yl)methoxy)benzofuran-3-carboxamide] | 4.70 to 6.00
23 | Cc1ncc(COc2ccc3oc(C)c(C(=O)NC(Cn4cncn4)C(N)=O)c3c2)s1 (single isomer, unassigned) [432-En 2, N-(1-amino-1-oxo-3-(1H-1,2,4-triazol-1-yl)propan-2-yl)-2-methyl-5-((2-methylthiazol-5-yl)methoxy)benzofuran-3-carboxamide] | > 6.00
24 | Cc1ncc(COc2ccc3oc(C)c(C(=O)NC(COC(F)F)C(N)=O)c3c2)s1 (single isomer, unassigned) [447-En 1, N-(1-amino-3-(difluoromethoxy)-1-oxopropan-2-yl)-2-methyl-5-((2-methylthiazol-5-yl)methoxy)benzofuran-3-carboxamide] | > 6.00

Same assay, conditions: PS (50 μM) stimulated, cpds. 500-599

Row | Compound | pIC50
25 | Cc1ncc(COc2ccc3oc(C)c(C(=O)NC4(CO)CCNC4)c3c2)s1 (single isomer, unassigned) [530-En 1, N-(3-(hydroxymethyl)pyrrolidin-3-yl)-2-methyl-5-((2-methylthiazol-5-yl)methoxy)benzofuran-3-carboxamide] | 4.70 to 6.00
26 | Cc1ncc(COc2ccc3oc(C)c(C(=O)NC4(CO)CCNC4)c3c2)s1 (single isomer, unassigned) [530-En 2, N-(3-(hydroxymethyl)pyrrolidin-3-yl)-2-methyl-5-((2-methylthiazol-5-yl)methoxy)benzofuran-3-carboxamide] | > 6.00
